Assay results taken from patent US4293700A, “2,6-Dimethyl-1,4-dihydropyridine-3,5-dicarboxylic acid esters and method for preparing same” (priority 1978, dated 1981).
Counter-ions that a name gives are not always drawn. Each block holds one molecule with its values, some of them ahead of it.

Columns and labels:
Walker carcinosarcoma = assay: Antimetastatic activity: life duration of rats with Walker carcinosarcoma; assay type: in vivo; conditions: for Life duration, % of the control: Walker carcinosarcoma (rats), 10 days; for increase of the life time: rats, after the removal of Walker carcinoma
Experimental: (§1) Antimetastatic properties of esters of 2,6-dimethyl-1,4-dihydropyridine-3,5-dicarboxylic acid have been tested on Walker carcinosarcoma, sarcoma 536 and Lewis pneumocarbinoma using mice and rats as test animals. The preparations were administered for 10 days. Two procedures of the administration of these compounds prior to the removal of the primary tumor and introduction of the compound after the removal of the primary tumor. The efficiency of antimetastatic activity of esters of 2,6-dimethyl-1,4-dihydropyridine-3,5-dicarboxylic acid is assessed by the increase of the life duration of the test animals expressed as percentage of the life duration of the animals administered no preparation and serving as the control.
Thus, disodium salt of carboxylatomethyl ester of 2,6-dimethyl-1,4-dihydropyridine-3,5-dicarboxylic acid administered in doses of 50 and 100 mg/kg during the period after the removal of Walker carcinoma increases the life time of the rest rats by 120 and 93% respectively. […] The effect of the compounds is most pronounced in tests with Walker carbinosarcoma on rats; a high efficiency is also noticed for sarcoma 536 with rats; less pronounced is the effect on Lewis lungs carcinoma with mice. The use of esters of 2,6-dimethyl-1,4-dihydropyridine-3,5-dicarboxylic acid provides no negative effect on physiological functions and behaviour of the test animals.

sarcoma 536 = assay: Antimetastatic activity: life duration of rats with sarcoma 536; assay type: in vivo; conditions: Sarcoma 536 (rats), 10 days
Experimental: as §1

Lewis lungs carcinoma = assay: Antimetastatic activity: life duration of mice with Lewis lungs carcinoma; assay type: in vivo; conditions: after the removal of the primary tumor, 10 days
Experimental: as §1

Solubility = assay type: physicochemical
metastases = conditions: in words; cited from earlier work
[1] = cited from earlier work
[2] = after the removal of the primary tumor, daily dose 50 mg/kg
[3] = after the removal of the primary tumor, daily dose 150 mg/kg
[4] = before the removal of the primary tumor, daily dose 100 mg/kg

solubility in alcohol (Solubility): sparingly soluble in alcohol
solubility in water (Solubility): highly soluble in water
Structure (SMILES): CC1=C(C(=O)OCC(=O)O)CC(C(=O)OCC(=O)O)=C(C)N1 [disodium carboxylate-methyl ester, disodium salt of carboxylate-methyl ester of 2,6-dimethyl-1,4-dihydropyridine-3,5-dicarboxylic acid]
Life duration, % of the control (Walker carcinosarcoma; [2]): 220%
Life duration, % of the control (Walker carcinosarcoma; after the removal of the primary tumor, daily dose 100 mg/kg): 193%
Life duration, % of the control (Walker carcinosarcoma; [3]): 112%
Life duration, % of the control (Walker carcinosarcoma; before the removal of the primary tumor, daily dose 50 mg/kg): 130%
Life duration, % of the control (Walker carcinosarcoma; [4]): 150%
increase of the life time (Walker carcinosarcoma; 50 mg/kg): 120%
increase of the life time (Walker carcinosarcoma; 100 mg/kg): 93%
Life duration, % of the control (sarcoma 536; [2]): 129%
Life duration, % of the control (sarcoma 536; [3]): 132%
Life duration, % of the control (sarcoma 536; [4]): 152%
Life duration, % of the control (sarcoma 536; before the removal of the primary tumor, daily dose 150 mg/kg): 138%
Life duration, % of the control (Lewis lungs carcinoma; daily dose 100 mg/kg): 120%
Life duration, % of the control (Lewis lungs carcinoma; daily dose 150 mg/kg): 113%

solubility in acetone (Solubility; acetone): highly-soluble
solubility in alcohol (Solubility): highly-soluble
solubility in benzene (Solubility; benzene): highly-soluble
solubility in chloroform (Solubility; chloroform): highly-soluble
solubility in water (Solubility): insoluble in water
Structure (SMILES): CC1=C(C(=O)OC2CC(C)CCC2C(C)C)CC(C(=O)OC2CC(C)CCC2C(C)C)=C(C)N1 (centres unmarked) [menthyl ester, Menthyl ester of 2,6-dimethyl-1,4-dihydropyridine-3,5-dicarboxylic acid]
Life duration, % of the control (Walker carcinosarcoma; prior to the removal of the primary tumor, daily dose 150 mg/kg): 116%
Life duration, % of the control (Walker carcinosarcoma; prior to the removal of the primary tumor, daily dose 300 mg/kg): 165%

Structure (SMILES): CC(CN1CC(=O)NC(=O)C1)N1CC(=O)NC(=O)C1 (racemic) [JCFR-159, (±) 1,2-bis(3,5-dioxopiperazin-1-yl)propane]
antimetastatic activity (metastases): certain antimetastic activity
side effects ([1]; in vivo): causes leucopenia, thrombocytopenia and dyspeptic phenomena
toxicity ([1]; in words): somewhat toxic
LD50 ([1]; species and route not given): 1,000 mg/kg
